Several values for one entry are separate records, joined by “and”; a condition that tells them apart may be missing. Equal values may be shown once. Activity calls are given as the source filed them.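 The calls were made as follows: active = compounds giving half or more protection of infected cells from virus-caused growth loss, again on retest; inactive = the rest.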
System: CEM cells HIV-1 protection, formazan growth assay
Assay: NCI AIDS Antiviral Assay
Conditions: for IC50: measured here: growth of uninfected CEM cells
Summary of the method: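 Soluble formazan readout of cell growth; CEM cells ± HIV-1; 5 drug concs. ≥50% protection → retest; ≥50% again = moderately active; reproducible 100% = confirmed active.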

CC(=O)OCC1OC(N2C(C)=C(C(C)=O)C(c3ccco3)C(C#N)=C2S)C(OC(C)=O)C(OC(C)=O)C1OC(C)=O (configuration not stated)
EC50: > 200 µM
IC50: 110 µM

O=C1CCC(c2ccccc2)=NN1c1nsc2ccccc12
EC50: > 85.1 µM
IC50: > 85.1 µM

O=C(O)C1CCCCN1c1ccccc1[N+](=O)[O-] (configuration not stated)
outcome: inactive

CC(=O)C(=Cc1cccc(C#N)c1)C(C)=O
EC50: > 63.1 µM
IC50: 34.7 µM

Cc1cccc(NC(=O)/C(=N\NC(C)(C)C)C2NC(=S)NC2=O)c1C (configuration not stated)
EC50: > 72.4 µM
IC50: > 72.4 µM

COC(=O)c1cc(C(=CCC[C@H]2CC[C@@]3(C)[C@@H](CC[C@H]4[C@@H]3CC[C@]3(C)[C@@H](C(C)CCCC(C)C)CC[C@@H]43)C2)c2cc(F)c(OC)c(C(=O)OC)c2)cc(F)c1OC (some centres not stated)
EC50: > 200 µM
IC50: > 200 µM

O=C1[C@H]2ON(c3ccccc3)C(c3ccc([N+](=O)[O-])cc3)[C@H]2C(=O)N1c1ccc(Cc2ccc(N3C(=O)[C@@H]4ON(c5ccccc5)C(c5ccc([N+](=O)[O-])cc5)[C@@H]4C3=O)cc2)cc1 (some centres not stated)
EC50: > 8.51 µM
IC50: > 8.51 µM

CN(C)Cc1cc(C(=O)/C=C/c2ccc(/C=C/C(=O)c3cc(CN(C)C)c(O)c(CN(C)C)c3)cc2)cc(CN(C)C)c1O
EC50: > 200 µM
IC50: 10 µM

CCOC(=O)[C@H]1Nc2c(cccc2[N+](=O)[O-])C2c3ccccc3CC21 (some centres not stated)
EC50: > 15.5 µM
IC50: > 15.5 µM

Cc1ccc(C)c2c1OC(=O)C1CNCOC21 (configuration not stated)
EC50: > 50.1 µM
IC50: > 50.1 µM

Cc1cn(C2CC(N=[N+]=[N-])C(COC(=O)[C@@]3(O)CCC4C5CCC6=CC(=O)C=C[C@]6(C)C5[C@@H](O)C[C@@]43C)O2)c(=O)[nH]c1=O (some centres not stated)
EC50: 1.15 µM
IC50: 22.9 µM

Cc1[nH]c2ccccc2c1C1Cc2ccccc2N1 (configuration not stated)
outcome: inactive

c1cc(C[S+]2CCCC2)sc1C[S+]1CCCC1
outcome: inactive

CC(=O)OC1C=C(C=O)C(O)(C=O)C2(C)CCCC(C)(C)C12 (configuration not stated)
EC50: > 200 µM
IC50: 8.13 µM

COC(=O)Nc1nc2ccc(C(=O)c3ccccc3)cc2[nH]1
EC50: > 2 µM
IC50: 0.0692 µM

CC(=O)Oc1cc(OC(C)=O)c2c(c1C)CC[C@@H]1[C@@H]2CC[C@]2(C)[C@@H](OC(C)=O)CC[C@@H]12
EC50: > 200 µM
IC50: 18.2 µM

C=C(C)CC1=C(OCC)C(OC)(OCC)C1=O (configuration not stated)
EC50: > 200 µM
IC50: > 200 µM

Cc1ccc(C(=O)O)c(O)c1
EC50: > 1620 µM
IC50: 1050 µM

COC(=O)C1=C(O)c2cc(OC)c(OC)c(OC)c2C(c2ccc3c(c2)OCO3)[C@@H]1C(=O)OC (some centres not stated)
outcome: inactive

COc1ccc(C2c3cc4c(cc3OC(N3CCCCC3)C2C)OCO4)cc1 (configuration not stated)
EC50: > 200 µM
IC50: > 200 µM

O=C([O-])C1([n+]2c(-c3ccccc3)cc(-c3ccccc3)cc2-c2ccccc2)CC1
EC50: > 200 µM
IC50: 81.3 µM

CN1C(=O)CC2CCCN2C1=O (configuration not stated)
EC50: > 200 µM
IC50: > 200 µM

Cc1cc2c(c(C(N)=O)c1C)-c1ccccc1C2=O
EC50: > 102 µM
IC50: > 102 µM

CC(=O)NC(CCCCN)C(=O)NCc1ccccc1 (configuration not stated)
EC50: > 912 µM
IC50: > 912 µM

Cc1ccc(N2C(=O)/C(=C/c3ccc(N(CCC#N)CCC#N)cc3)N=C2COc2ccc(Cl)cc2Cl)cc1
outcome: inactive

Oc1ccc(Cc2cc(Cc3ccc(O)cc3)cc(Cc3ccc(O)cc3)c2)cc1
EC50: 93.3 µM
IC50: > 100 µM

Nc1nc(Cl)cc(NCCCCCCCCCCNc2cc(Cl)nc(N)n2)n1
outcome: inactive

CN(C)c1nc(N(C)C)nc(N(C)CN(C)c2nc(N(C)C)nc(N(C)C)n2)n1
EC50: > 50.1 µM
IC50: > 50.1 µM

Cc1ccc(C2=NN(C)COC2C(F)(F)F)cc1 (configuration not stated)
EC50: > 28.2 µM
IC50: > 28.2 µM

COc1ccc2cc3[n+](cc2c1OC)CCc1cc2c(cc1-3)OCO2
EC50: > 339 µM
IC50: 6.76 µM and 3.31 µM

O=C(C(=O)n1ccc2ccccc21)c1c[nH]c2ccccc12
EC50: > 200 µM
IC50: > 200 µM

S=C(c1c[nH]c2ccccc12)N1CCCCC1
EC50: > 200 µM
IC50: 44.7 µM

C=CCn1c(N)c(C#N)c(C#N)c1CCC
EC50: > 200 µM
IC50: > 200 µM

CCCCCCCCCCCCCCCCOCC(CP(=O)([O-])OCC[n+]1ccccc1)OC (configuration not stated)
EC50: > 5.01 µM
IC50: 2.51 µM

CCc1cccc(C(C)(C)C)c1NC(=S)N/C=C(\C#N)C(=O)c1ccc2ccccc2c1
EC50: > 200 µM
IC50: 93.3 µM

O=C1NC(O)c2cc3ccccc3cc2O1 (configuration not stated)
EC50: > 200 µM
IC50: 112 µM

COC(=O)c1ccc(C)cc1C1CN=NC12Cc1cc(C)c(C)cc1C2=O (configuration not stated)
EC50: > 200 µM
IC50: 22.4 µM

CN(C)c1nc(N(C)C)nc(N(C)CN(C)c2ccc(Cl)cc2)n1
EC50: > 50.1 µM
IC50: > 50.1 µM

Cc1cn(C2CC(N=[N+]=[N-])C(COC(=O)CCCCCCCCCCOc3ccccc3)O2)c(=O)[nH]c1=O (configuration not stated)
EC50: 0.0468 µM
IC50: 110 µM

COc1nnc(C)c2[nH]c(=S)[nH]c12
EC50: > 457 µM
IC50: > 457 µM

CC1CCC2N(C1)CC1C3(O)CC45OC6(O)C(O)CCC4(C)C6CCC5C3(O)CC(O)C1(O)C2(C)O (configuration not stated)
EC50: > 490 µM
IC50: > 490 µM

CC(=O)C1(O)CC2(c3ccccc3)C(=O)C1(c1ccccc1)C(c1ccccc1)=C2c1ccccc1 (configuration not stated)
outcome: inactive

O=C(/C=N/O)Nc1ccc(Cl)c(I)c1
EC50: > 79.4 µM
IC50: 64.6 µM

N#C/C(=C\c1cccc([N+](=O)[O-])c1)C(=O)c1ccccc1
EC50: > 79.4 µM
IC50: 40.7 µM

Nc1ncc(Br)c(NCC2(CO)CCC2)n1
EC50: > 200 µM
IC50: 15.8 µM

O=C1c2c(O)ccc(O)c2C(=O)c2c(NCCNCCO)ccc(NCCNCCO)c21
EC50: > 0.708 µM
IC50: 0.00186 µM and 0.00251 µM

COCN1C(=O)[C@@H]2CCCN2C(=O)c2cc([N+](=O)[O-])ccc21
EC50: > 200 µM
IC50: 102 µM

O=S(Cc1cc2c(cc1Br)OCO2)c1ccccc1 (configuration not stated)
EC50: > 39.8 µM
IC50: > 39.8 µM

Cn1cnc([N+](=O)[O-])c1Sc1ncn[nH]1
EC50: > 1100 µM
IC50: 17.8 µM

O=C(O)c1ccc(CS(=O)(=O)c2ccccc2)cc1
EC50: > 912 µM
IC50: > 912 µM

O=C1/C(=C/c2ccccc2)NC(=S)N1CN1CCCCC1
EC50: > 200 µM
IC50: 33.9 µM

O=C(Nc1cccc(O)c1)C(=O)C(C(=O)c1ccccc1F)C1OC(=O)c2ccccc21 (configuration not stated)
EC50: > 302 µM
IC50: 24 µM

Cc1ccc(O)c(C(c2cc(C)ccc2O)c2cc([N+](=O)[O-])ccc2O)c1
outcome: inactive

O=[N+]([O-])c1ccc(/C(=C\c2ccccc2)Cn2ccnc2)cc1
EC50: > 200 µM
IC50: 31.6 µM

N#C/C(=C\n1ccc(=O)[nH]c1=S)c1nc2ccccc2s1
EC50: > 200 µM
IC50: > 200 µM

COC12C[C@H]3CCC([C@H](C)c4ccc5c(c41)CC1[C@H]5C[C@@H](O)C4C[C@@H](O)CC[C@@]41C)N2C3 (some centres not stated)
EC50: > 40.7 µM
IC50: > 40.7 µM

CSCCCNC(=O)c1csc([C@@H](CSC)NC(=O)CCNC(=O)[C@@H](NC(=O)OCC(Br)(Br)Br)C(C)O)n1 (some centres not stated)
EC50: > 166 µM
IC50: > 166 µM

CN(CC1(CO)CCC1)c1cc(Cl)nc(N)n1
EC50: > 200 µM
IC50: 53.7 µM

Clc1ccc2nsnc2c1
outcome: inactive

CCOC(=O)C(=O)Nc1ccccc1C
EC50: > 34.7 µM
IC50: > 34.7 µM

CC(C)=CCC[C@@H](C)C1=C(Nc2ccccc2)C(O)=C(C)C(=O)C1=O
EC50: > 200 µM
IC50: 3.02 µM

On1ccccc1=S
EC50: > 2 µM
IC50: 1.32 µM

Cc1cc(-n2nnc(C(=O)O)c2-c2ccccc2)c2ccc(Cl)cc2n1
EC50: > 200 µM
IC50: > 200 µM

COc1ccc(-c2nc3sc(-c4ccc(OC)c(OC)c4)nc3s2)cc1OC
EC50: > 200 µM
IC50: > 200 µM

CCOC(=O)Cc1cc(=O)[nH]n(-c2ccccc2)c1=O
outcome: inactive

COc1ccc(CCNC(=O)CCc2ccccc2CO)cc1OC
EC50: > 200 µM
IC50: > 200 µM

N#CC(C(=O)CCC(=O)Nc1ccc(Cl)c(Cl)c1)c1ccccc1 (configuration not stated)
EC50: > 692 µM
IC50: > 692 µM

Cc1sc2nc3n(c(=O)c2c1C)N=CN(c1ccc(F)cc1)C3
EC50: 30.9 µM
IC50: > 100 µM

CC(O)(/C=C/c1ccccc1)P(=O)(O)c1ccccc1 (configuration not stated)
EC50: > 200 µM
IC50: > 200 µM

CCCCCCCCCCSC(=O)NC
outcome: inactive

Nc1nc(Cl)c(N)c(NCC2(CO)CC(O)C2)n1 (configuration not stated)
EC50: > 200 µM
IC50: > 200 µM

Cc1cc2cc(Cl)ccc2nc1C(=O)c1ccccc1
EC50: > 2.57 µM
IC50: > 2.57 µM

CCCN(CCCCC(NC(C)=O)C(=O)NCc1ccccc1)C(=O)NC (configuration not stated)
EC50: > 661 µM
IC50: > 661 µM

CN(C)CCSc1nccc(-c2ccc(-c3ccnc(SCCN(C)C)n3)s2)n1
EC50: > 102 µM
IC50: 0.182 µM

CN1CCC(CNC(=O)CCCCCCCCC(=O)NCC2(c3ccccc3)CCN(C)CC2)(c2ccccc2)CC1
EC50: 97.7 µM and > 100 µM
IC50: > 100 µM

CSc1cc(-c2ccccn2)nc(-c2ccccn2)c1.CSc1cc(-c2ccccn2)nc(-c2ccccn2)c1.[Co+2].[O-][Cl+3]([O-])([O-])[O-]
EC50: > 200 µM
IC50: 0.12 µM

CC1=C2[C@H](c3ccccc3)C3C=CC2(c2ccccc23)N(C(=O)C(c2ccccc2)c2ccccc2)C1=O (some centres not stated)
EC50: > 1.51 µM
IC50: > 1.51 µM

CCN(CC)CCCC(C)Nc1cc(C)nc2c1ccc1c2ccc2c(NC(C)CCCN(CC)CC)cc(C)nc21 (configuration not stated)
EC50: > 66.1 µM
IC50: 3.98 µM

Cc1cccc(C2OC(=O)c3c2ccc2ccccc32)c1 (configuration not stated)
outcome: inactive

O=c1oc2ccccc2c(O)c1C(c1ccc([N+](=O)[O-])cc1)c1c(O)c2ccccc2oc1=O
outcome: inactive

C[CH2][Sn]([CH2]C)([O]C(=O)c1ccc(OC)c(OC)c1OC)[O]C(=O)c1ccc(OC)c(OC)c1OC
EC50: > 83.2 µM
IC50: 7.59 µM

Cn1c2c(c3ccccc31)CCN(CCCCN1CCN(c3cccc(Cl)c3)CC1)C2=O
EC50: > 11 µM
IC50: > 11 µM

COc1ccc(C2OCC3OC(n4cc(C)c(=O)[nH]c4=O)CC3N2O)cc1 (configuration not stated)
EC50: > 200 µM
IC50: > 200 µM

O=C1CCC2=NCc3c(ccc4ccccc34)N12
EC50: > 398 µM
IC50: 347 µM

CCOC(=O)C1=NN(c2ccccc2)C(=O)/C1=C\N1CC(=O)NC1=S
EC50: > 200 µM
IC50: > 100 µM
